Test results as given in PubChem BioAssay AID330 (DTP/NCI, 2004).
Values joined by “and” are separate entries in the source; they are usually repeats but may differ in a detail not shown here. Equal values may be shown once. Toxic doses and inconclusive results are not listed. How the source made its calls: active means survival T/C of 150% or more; inactive means T/C below 125% in these data.

Tested on: P388 leukemia ip, CD2F1 mice, survival T/C
Assay: NCI In Vivo Anticancer Drug Screen. Data for tumor model P388 Leukemia (intraperitoneal) in CD2F1 (CDF1) mice
Conditions: endpoint: median survival time, higher = longer survival
Summary of the method: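 Mice carrying the transplanted tumor received test compound or vehicle. Survival was recorded in each group, and the value is the treated-group measurement divided by that of the vehicle-treated control group.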

[1] = dose: 50.0 mg/kg/injection, schedule: Q01DX009 (ip), vehicle: saline with Tween-80
[2] = dose: 100.0 mg/kg/injection, schedule: Q01DX009 (ip), vehicle: saline with Tween-80
[3] = dose: 200.0 mg/kg/injection, schedule: Q01DX009 (ip), vehicle: saline with Tween-80
[4] = dose: 100.0 mg/kg/injection, schedule: Q04DX002 (ip), vehicle: saline with Tween-80
[5] = dose: 200.0 mg/kg/injection, schedule: Q04DX002 (ip), vehicle: saline with Tween-80
[6] = dose: 100.0 mg/kg/injection, schedule: Q01DX009 (ip), vehicle: suspension in saline
[7] = dose: 200.0 mg/kg/injection, schedule: Q01DX009 (ip), vehicle: suspension in saline
[8] = dose: 60.0 mg/kg/injection, schedule: Q01DX005 (ip), vehicle: saline
[9] = dose: 120.0 mg/kg/injection, schedule: Q01DX005 (ip), vehicle: saline
[10] = dose: 50.0 mg/kg/injection, schedule: Q01DX005 (ip), vehicle: saline with Tween-80
[11] = dose: 100.0 mg/kg/injection, schedule: Q01DX005 (ip), vehicle: saline with Tween-80
[12] = dose: 200.0 mg/kg/injection, schedule: Q01DX005 (ip), vehicle: saline with Tween-80
[13] = dose: 60.0 mg/kg/injection, schedule: Q01DX005 (ip), vehicle: saline with Tween-80
[14] = dose: 120.0 mg/kg/injection, schedule: Q01DX005 (ip), vehicle: saline with Tween-80
[15] = dose: 240.0 mg/kg/injection, schedule: Q01DX005 (ip), vehicle: saline with Tween-80
[16] = dose: 50.0 mg/kg/injection, schedule: Q01DX009 (ip), vehicle: saline
[17] = dose: 100.0 mg/kg/injection, schedule: Q01DX009 (ip), vehicle: saline
[18] = dose: 200.0 mg/kg/injection, schedule: Q01DX009 (ip), vehicle: saline
[19] = dose: 50.0 mg/kg/injection, schedule: Q01DX005 (ip), vehicle: Klucel (hydroxypropylcellulose) (HPC)
[20] = dose: 100.0 mg/kg/injection, schedule: Q01DX005 (ip), vehicle: Klucel (hydroxypropylcellulose) (HPC)

Measured: T/C

Cc1nnc(NS(=O)(=O)c2ccc(N=Nc3cc(N=Nc4ccc(S(=O)(=O)Nc5nnc(C)s5)cc4)c4c(NC(=O)C(Cl)Cl)cccc4c3OC(=O)C(Cl)Cl)cc2)s1 (tested in a mixture with another compound)
inactive: dose: 3.12 mg/kg/injection, schedule: Q01DX009 (ip), vehicle: Klucel (hydroxypropylcellulose) (HPC) 111 % of control | dose: 6.25 mg/kg/injection, schedule: Q01DX009 (ip), vehicle: Klucel (hydroxypropylcellulose) (HPC) 116 % of control | dose: 6.25 mg/kg/injection, schedule: Q01DX009 (ip), vehicle: saline with Tween-80 109 % of control | dose: 12.5 mg/kg/injection, schedule: Q01DX009 (ip), vehicle: Klucel (hydroxypropylcellulose) (HPC) 120 % of control | [1] 99 % of control and 97 % of control | [2] 100 % of control | [3] 98 % of control

CC(=O)CC(=O)N/N=C(N)/C(C#N)=N/N(C)c1ccccc1
inactive: [4] 97 % of control | [5] 94 % of control | dose: 400.0 mg/kg/injection, schedule: Q04DX002 (ip), vehicle: saline with Tween-80 96 % of control

COc1ccc(CSC(=S)Nc2ccc(C)c(Cl)c2)cc1
inactive: dose: 50.0 mg/kg/injection, schedule: Q01DX009 (ip), vehicle: suspension in saline 106 % of control | [6] 102 % of control | [7] 111 % of control

C=CC(C(=C)C(=O)OC)c1ccccc1 (stereo not drawn)
inactive: [8] 100 % of control | [9] 109 % of control | dose: 240.0 mg/kg/injection, schedule: Q01DX005 (ip), vehicle: saline 103 % of control

COc1ccc(C(c2cc3c(cc2O)OCO3)N2CCCC2)cc1 (stereo not drawn)
inactive: dose: 60.0 mg/kg/injection, schedule: Q01DX005 (ip), vehicle: Klucel (hydroxypropylcellulose) (HPC) 100 % of control | dose: 120.0 mg/kg/injection, schedule: Q01DX005 (ip), vehicle: Klucel (hydroxypropylcellulose) (HPC) 100 % of control

CCn1c2ccc(N=C=O)cc2c2c3[nH]c(=O)c4cccn4c3ccc21
inactive: [10] 95 % of control | [11] 88 % of control | [12] 86 % of control

COc1cc(Br)c(CC(NC=O)c2ccc(OC)c(OC)c2OC)cc1OC (stereo not drawn)
inactive: [13] 107 % of control | [14] 100 % of control | [15] 100 % of control

CN(C)CCC(=O)c1ccc2c(c1)OCO2
inactive: [8] 100 % of control | [9] 92 % of control

CCC(CC)C(=O)NCC(=O)NO
inactive: dose: 25.0 mg/kg/injection, schedule: Q01DX005 (ip), vehicle: saline with Tween-80 100 % of control | [10] 103 % of control | [11] 100 % of control | [12] 95 % of control

CCOc1cc2c(cc1Cc1ccc(OC)cc1OC)OCO2
inactive: [13] 104 % of control and 107 % of control and 112 % of control | [14] 102 % of control and 107 % of control | [15] 111 % of control and 123 % of control | dose: 480.0 mg/kg/injection, schedule: Q01DX005 (ip), vehicle: saline with Tween-80 118 % of control

CN(C)Cc1cccc[c]1[Sn]([CH3])([Br])[c]1ccccc1CN(C)C
inactive: dose: 3.12 mg/kg/injection, schedule: Q01DX009 (ip), vehicle: saline 101 % of control and 113 % of control and 88 % of control

CC1=NN(C(=O)c2ccncc2)C(=O)C1N=Nc1ccc(Cl)cc1 (stereo not drawn)
inactive: [1] 104 % of control | [2] 99 % of control | [3] 105 % of control

N#C/C(=C\c1cccnc1)C(N)=S
inactive: [16] 101 % of control | [17] 88 % of control | [18] 104 % of control

O=C1OC2(CCCCC2)Cc2oc3ccccc3c(=O)c21
inactive: dose: 25.0 mg/kg/injection, schedule: Q01DX005 (ip), vehicle: Klucel (hydroxypropylcellulose) (HPC) 98 % of control | [19] 100 % of control | [20] 90 % of control

COc1cccc(/C=N/NC(=O)c2c(-c3ccccc3)noc2C)c1O
inactive: [1] 99 % of control | [2] 100 % of control | [3] 110 % of control

CC(=O)Nc1ccc(Nc2ccc(NCCO)c3c2C(=O)c2c(O)ccc(O)c2C3=O)cc1
inactive: dose: 25.0 mg/kg/injection, schedule: Q04DX002 (ip), vehicle: saline with Tween-80 96 % of control | dose: 50.0 mg/kg/injection, schedule: Q04DX002 (ip), vehicle: saline with Tween-80 96 % of control | [4] 100 % of control | [5] 100 % of control

COc1ccc(CSC(=S)Nc2ccc(C)c(Br)c2)cc1
inactive: [16] 100 % of control | [17] 97 % of control | [6] 91 % of control | [18] 106 % of control | [7] 104 % of control

Nc1ccc(-c2ccc(N)cc2)cc1
inactive: [2] 90 % of control | [3] 100 % of control | dose: 400.0 mg/kg/injection, schedule: Q01DX009 (ip), vehicle: saline with Tween-80 95 % of control

COP(=O)(OC)O[Si](C)(C)CC[Si](C)(C)Cl
inactive: [19] 105 % of control | [20] 105 % of control | dose: 200.0 mg/kg/injection, schedule: Q01DX005 (ip), vehicle: Klucel (hydroxypropylcellulose) (HPC) 99 % of control

COP1(OC)(OC)OC(C)=C(C)O1
inactive: [16] 86 % of control | [17] 94 % of control | [18] 86 % of control

CCN1CC2(C)CCC(OC)C34C5CC6CCC(O)(C5C(=O)O6)C(C(O)C23)C14 (stereo not drawn)
inactive: dose: 25.0 mg/kg/injection, schedule: Q01DX009 (ip), vehicle: Klucel (hydroxypropylcellulose) (HPC) 100 % of control | dose: 50.0 mg/kg/injection, schedule: Q01DX009 (ip), vehicle: Klucel (hydroxypropylcellulose) (HPC) 98 % of control | dose: 100.0 mg/kg/injection, schedule: Q01DX009 (ip), vehicle: Klucel (hydroxypropylcellulose) (HPC) 95 % of control

C=C1CCN(c2ccccc2)C1=O
inactive: dose: 4.0 mg/kg/injection, schedule: Q01DX009 (ip), vehicle: saline + alcohol 107 % of control | dose: 8.0 mg/kg/injection, schedule: Q01DX009 (ip), vehicle: saline + alcohol 92 % of control | dose: 16.0 mg/kg/injection, schedule: Q01DX009 (ip), vehicle: saline + alcohol 105 % of control | dose: 32.0 mg/kg/injection, schedule: Q01DX009 (ip), vehicle: saline + alcohol 101 % of control | dose: 64.0 mg/kg/injection, schedule: Q01DX009 (ip), vehicle: saline + alcohol 107 % of control
